Assay results: US20110301155A1, “INDAZOLE COMPOUNDS FOR ACTIVATING GLUCOKINASE” (priority 2007, published 2011)
Counter-ions that a name gives are not always drawn.

Columns and labels:
[1] = target: T1, GST-hLGK1 (human liver type GK) (Homo sapiens, UniProt P35557); experiment: Determination of GK activity value (fluorescence assay); format: biochemical; conditions: test compound 10 μmol/L, 5 mmol/L D-glucose, reaction rate as percentage of control without compound
T1 construct: made in house; host or cells: Escherichia coli BL21 (pGEX6P-2/hLGK1)
T1 sequence (P35557 1-464 isoform P35557-3): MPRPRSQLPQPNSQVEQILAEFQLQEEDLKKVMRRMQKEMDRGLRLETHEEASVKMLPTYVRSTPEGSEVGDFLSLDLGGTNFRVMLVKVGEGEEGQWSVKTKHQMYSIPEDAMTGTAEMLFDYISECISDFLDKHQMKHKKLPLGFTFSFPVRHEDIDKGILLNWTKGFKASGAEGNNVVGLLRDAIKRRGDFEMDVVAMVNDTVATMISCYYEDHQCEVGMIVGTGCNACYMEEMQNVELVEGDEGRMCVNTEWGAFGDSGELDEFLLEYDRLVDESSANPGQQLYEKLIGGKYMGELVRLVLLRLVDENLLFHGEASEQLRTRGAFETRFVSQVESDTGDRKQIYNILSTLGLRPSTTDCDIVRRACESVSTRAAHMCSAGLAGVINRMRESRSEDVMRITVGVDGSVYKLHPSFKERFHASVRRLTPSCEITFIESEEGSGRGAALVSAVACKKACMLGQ
Description: Plasmid DNA to be used for the expression of a protein (GST-hLGK1) containing GST (Glutathione S-transferase) added to the amino terminal of human liver type GK in Escherichia coli was prepared as shown below.
BL21 strain (Stratagene) transformed with pGEX6P-2/hLGK1 obtained in Reference Example 1A was cultured with shaking at 37° C. for 14 hr in a 200 ml Erlenmeyer flask containing 50 ml of 100 μg/ml ampicillin-containing LB medium. The culture medium (25 ml) was diluted with 225 ml of 100 μg/ml ampicillin-containing LB medium, and further cultured with shaking at 37° C. for 1 hr in a 1L Erlenmeyer flask. After culture, the Erlenmeyer flask was cooled on ice, 125 μL of 100 mM isopropyl-thio-β-D-galactopyranoside (IPTG) was added (final concentration 50 μM), and cultured at 17° C. for 20 hr. The culture medium was centrifuged, and the obtained fungus was disrupted by ultrasonication. The object protein (GST-hLGK1) was purified from the supernatant using Glutathione Sepharose 4B (Amersham Biosciences. K.K.).
GK enzyme reactions were performed in 50 mmol/L HEPES pH 7.4, 200 mmol/L KCl, 5 mmol/L MgCl2, 2 mmol/L DTT, containing 50 μmol/L 2′-(or-3′)-O-(N-methylanthraniloyl)adenosine 5′-triphosphate (Mant-ATP) (Jena Bioscience GmbH), 5 mmol/L D-glucose, 5% DMSO and 6 μg/mL GST-hLGK1 obtained in Reference Example 2A in a total volume 50 μL. The reactions were performed in 384 well black plates (Nalge Nunc International K.K.). Prior to the reaction, the enzyme and test compound were incubated for 10 min at 37° C., and 25 mM D-glucose solution (10 μL) was added to start the reaction. The final concentration of the test compound is 10 μmol/L. After the incubation for 60 min at 37° C., the reaction was quenched by adding 25 μL of a quenching solution (containing 200 mM HEPES (pH 7.4), 20 mM MgCl2, 200 mM EDTA, 0.03% Triton-X 100, 0.3% Coating 3 reagent (Caliper Life Sciences, Inc.)).
Mant-ATP (substrate, 2′-(or-3′)—O—(N-methylanthraniloyl)adenosine 5′-triphosphate) and Mant-ADP (reaction resultant product) were separated from each well after the reaction by a microchip type capillary electrophoresis apparatus 250 HTS (Caliper Life Sciences, Inc.). The reaction rate [(reaction resultant product peak height)/(reaction resultant product peak height+substrate peak height)×100(%)] was calculated from the ratio of the substrate peak height and reaction resultant product peak height obtained by fluorescence detection (excitation wavelength 355 nm, measurement wavelength 460 nm) and used as the index of GK activity.
As a control group, the reaction rate was calculated in the same manner as above without the test compounds.
The percentage obtained by dividing the reaction rate of the well added with the test compound (test compound addition group) by the reaction rate of the control group was taken as the GK activity value (Emax) of the test compound.

[2] = target: T2, GK (recombinant glucokinase, residues 12-465 of the human enzyme) (Homo sapiens, UniProt P35557); experiment: Determination of GK activity value (luminescence assay); format: biochemical; conditions: calculated maximal gain in GK enzyme activity at saturating compound concentration; 5 mM glucose, 5 μM ATP
T2 construct: FLAG (C-terminal tag of vector pFLAG-CTC; only the vector is printed) (C); made in house; host or cells: Escherichia coli DH10b-T1r (pFLAG-CTC plasmid)
T2 sequence (P35557 12-465): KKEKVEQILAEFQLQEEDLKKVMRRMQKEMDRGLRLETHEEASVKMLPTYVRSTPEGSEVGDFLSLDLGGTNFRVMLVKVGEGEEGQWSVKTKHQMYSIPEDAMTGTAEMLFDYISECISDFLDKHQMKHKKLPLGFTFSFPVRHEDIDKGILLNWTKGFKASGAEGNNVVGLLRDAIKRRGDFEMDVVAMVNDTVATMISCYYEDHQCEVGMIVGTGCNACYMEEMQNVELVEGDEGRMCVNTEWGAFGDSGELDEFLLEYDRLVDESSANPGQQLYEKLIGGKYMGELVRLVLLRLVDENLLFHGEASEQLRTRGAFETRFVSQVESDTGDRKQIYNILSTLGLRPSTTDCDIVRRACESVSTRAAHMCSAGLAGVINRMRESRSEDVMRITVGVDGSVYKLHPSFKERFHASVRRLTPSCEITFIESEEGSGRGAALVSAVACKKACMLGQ
Excerpt: DNA encoding residues 12-465 of the full-length sequence of the human enzyme may be amplified by PCR and cloned into the HindIII and EcoRI sites of pFLAG-CTC (Sigma). SEQ.I.D. No. 1 corresponds to residues 12-465 of glucokinase.
The expression of recombinant glucokinase protein may be carried out by transformation and growth of DH10b-T1r E. coli cells incorporating the (pFLAG-CTC) plasmid in LB media. Protein expression can be induced in this system by the addition of IPTG to the culture medium.
Recombinant protein may be isolated from cellular extracts by passage over Sepharose Q Fast Flow resin (Pharmacia). This partially purified GK extract may then be further purified by a second passage over Poros HQ10 (Applied Biosystems). The purity of GK may be determined on denaturing SDS-PAGE gel. Purified GK may then be concentrated to a final concentration of 20.0 mg/ml. After flash freezing in liquid nitrogen, the proteins can be stored at −78° C. in a buffer containing 25 mM TRIS-HCl pH 7.6, 50 mM NaCl, and 0.5 mM TCEP.
The activation properties of compounds for GK may be determined using a black 384-well-plate format under the following reaction conditions: 25 mM Hepes pH 7.2, 25 mM NaCl, 10 mM MgCl2, 0.01% Brij35, 1 mM DTT, 5 μM ATP, 5 mM Glucose 2% DMSO. The amount of ATP consumed may be determined quantitatively by addition of equal volume of luciferase reagent (luciferase+beetle luciferin—KinaseGlo Luminescent Kinase Assay kit from Promega). The luminescence intensity may be measured by using the Analyst HT from LJL Biosystems.
The assay reaction may be initiated as follows: 4 μl of substrate mixture (12.5 μM ATP and 12.5 mM Glucose) was added to each well of the plate, followed by the addition of 2 μl of activator (2 fold serial dilutions for 11 data points for each activator) containing 10% DMSO. 4 μL of 1.25 nM GK solution obtained in Reference Example 3A may be added to initiate the reaction. The reaction mixture may then be incubated at room temperature for 60 min, and quenched and developed by addition of 10 μL of luciferase reagent. Luminescence intensities of the resulting reaction mixtures may be measured after a 10 min incubation at room temperature. The luminescence intensity may be measured by using the Analyst HT from LJL Biosystems.
% ACTmax values may be calculated by non-linear curve fitting of the compound concentrations and luminescence intensities to a standard inhibition/activation equation. % ACTmax represents the calculated maximal gain in GK enzyme activity at a saturating concentration of the compound. % ACTmax values for select compounds of the present invention are given in Table 2.

Work on `COC[C@H](C)Oc1cc(OCCc2ccccn2)c2[nH]nc(Nc3nccs3)c2c1` [Example 108, 5-[(1S)-2-methoxy-1-methylethoxy]-7-(2-pyridin-2-ylethoxy)-N-1,3-thiazol-2-yl-1H-indazole-3-amine dihydrochloride] yielded an Emax at 10 µM [1] of 199%.

For `Cn1ccc(Nc2n[nH]c3c(OCCc4ccccn4)cc(-c4ncccc4Cl)cc23)n1` [Example 100, 5-(3-chloropyridin-2-yl)-N-(1-methyl-1H-pyrazol-3-yl)-7-(2-pyridin-2-ylethoxy)-1H-indazole-3-amine], the melting point was 89 to 91 °C and the Emax at 10 µM [1] was 200%.

With `CC(C)S(=O)(=O)c1cc(Oc2ccc(S(C)(=O)=O)cc2)c2[nH]nc(Nc3ccn(C)n3)c2c1` [Example 136, 5-(isopropylsulfonyl)-N-(1-methyl-1H-pyrazol-3-yl)-7-(4-(methylsulfonyl)phenoxy)-1H-indazol-3-amine trifluoroacetic acid salt] the “% ACTmax” value [2] was 110.9%.

With `COC[C@H](C)Oc1cc(OCCc2ccccn2)c2[nH]nc(Nc3nccs3)c2c1` (as salt: hydrochloride) [Example 108, 5-[(1S)-2-methoxy-1-methylethoxy]-7-(2-pyridin-2-ylethoxy)-N-1,3-thiazol-2-yl-1H-indazole-3-amine dihydrochloride] the melting point was 150 to 153 °C.

With `Cn1ccnc1Sc1ccc2[nH]nc(Nc3nccs3)c2c1` [Example 109, 5-[(1-methyl-1H-imidazol-2-yl)thio]-N-1,3-thiazol-2-yl-1H-indazole-3-amine] the melting point was over 250 °C and the Emax at 10 µM [1] was 218%.

`Cn1ccc(Nc2n[nH]c3ccc(-c4ncccc4Cl)cc23)n1` [Example 63, 5-(3-chloropyridin-2-yl)-N-(1-methyl-1H-pyrazol-3-yl)-1H-indazole-3-amine] showed a melting point of 190 to 191 °C and an Emax at 10 µM [1] of 175%.

For `Clc1cccnc1-c1cc(OCCc2ccccn2)c2[nH]nc(Nc3nccs3)c2c1` [Example 85, 5-(3-chloropyridin-2-yl)-7-(2-pyridin-2-ylethoxy)-N-1,3-thiazol-2-yl-1H-indazole-3-amine], the melting point was 185 to 187 °C and the Emax at 10 µM [1] was 231%.

Molecule `O=S(=O)(c1ccc2[nH]nc(Nc3nccs3)c2c1)N1CCCC1` [Example 20, 5-(pyrrolidin-1-ylsulfonyl)-N-1,3-thiazol-2-yl-1H-indazole-3-amine] has an Emax at 10 µM [1] of 156%.

Molecule `CCNC(=O)Nc1n[nH]c2ccc(-c3ncccc3Cl)cc12` [Example 101, N-[5-(3-chloropyridin-2-yl)-1H-indazol-3-yl]-N′-ethylurea] has a melting point of 178 to 180 °C and an Emax at 10 µM [1] of 202%.

`CCn1nc(Nc2nccs2)c2cc(-c3ncccc3Cl)ccc21` [Example 30, 5-(3-chloropyridin-2-yl)-1-ethyl-N-1,3-thiazol-2-yl-1H-indazole-3-amine] gave an Emax at 10 µM [1] of 129%.

Work on `CCCc1cc(-c2cc3ccccc3s2)c2[nH]nc(Nc3nccs3)c2c1` [Example 28, 7-(1-benzothien-2-yl)-5-propyl-N-1,3-thiazol-2-yl-1H-indazole-3-amine] yielded an Emax at 10 µM [1] of 231%.

Work on `CC(C)Cc1cc(OCC(=O)N(C)C)c2[nH]nc(Nc3nccs3)c2c1` [Example 73, 2-{[5-isobutyl-3-(1,3-thiazol-2-ylamino)-1H-indazole-7-yl]oxy}-N,N-dimethylacetamide] yielded a melting point of 96 to 98 °C and an Emax at 10 µM [1] of 111%.

`CC(C)Cc1cc(OCCc2ccsc2)c2[nH]nc(Nc3nccs3)c2c1` [Example 72, 5-isobutyl-N-1,3-thiazol-2-yl-7-[2-(3-thienyl)ethoxy]-1H-indazole-3-amine] showed a melting point of 150 to 151 °C and an Emax at 10 µM [1] of 194%.

In the case of `Clc1cccnc1-c1ccc2[nH]nc(Nc3ncc(CN4CCOCC4)s3)c2c1` [Example 34, 5-(3-chloropyridin-2-yl)-N-[5-(morpholin-4-ylmethyl)-1,3-thiazol-2-yl]-1H-indazole-3-amine], the melting point is reported as 217 °C and the Emax at 10 µM [1] is reported as 186%.

`Cn1ccc(Nc2n[nH]c3c(Oc4ccc(S(C)(=O)=O)cc4)cc(-c4ncccc4Cl)cc23)n1` [Example 105, 5-(3-chloropyridin-2-yl)-N-(1-methyl-1H-pyrazol-3-yl)-7-[4-(methylsulfonyl)phenoxy]-1H-indazole-3-amine] showed an Emax at 10 µM [1] of 140%.

`CC(C)S(=O)(=O)c1cc(OCCc2ccccn2)c2[nH]nc(Nc3nccs3)c2c1` [Example 117, 5-(isopropylsulfonyl)-7-(2-pyridin-2-ylethoxy)-N-1,3-thiazol-2-yl-1H-indazole-3-amine] gave a melting point of 190 to 191 °C and an Emax at 10 µM [1] of 211%.
